Assay in all cases: Inhibitory effect on CYP coenzyme activity, human liver microsomes
Holding throughout (format): in vitro ADME
For orientation: Liver microsomes are vesicles of endoplasmic reticulum, rich in cytochrome P450 enzymes.

Data set [1] has as its target T1, CYP2C9 (Homo sapiens, UniProt P11712).
T1 construct: human liver microsomes (0.25 mg/mL); from tissue; host or cells: human liver microsomes
Particulars: 10 μM compound, human liver microsomes 0.25 mg/mL, substrate diclofenac, 15 minutes. As to the method:
(§1) The inhibitory effects of the compounds prepared according to Examples 1 to 57 on CYP coenzyme activity were identified. Specifically, human liver microsomes (0.25 mg/mL), a 0.1 M phosphate buffer solution (pH 7.4), a substrate drug cocktail of five types of drug metabolism enzymes (50 μM phenacetin, 10 μM diclofenac, 100 μM S-mephenytoin, 5 μM dextromethorphan, and 2.5 μM midazolam), and the compound at a concentration of 0 μM or 10 μM were mixed and pre-cultured at 37° C. for 5 minutes, and then further cultured at 37° C. for 15 minutes together with an NADPH generation system solution added thereto. Thereafter, the reaction was terminated by adding an acetonitrile solution containing an internal standard material (terfenadine) and centrifuged for 5 minutes (14,000 rpm, 4° C.), and then a supernatant was injected into an LC-MS/MS system for simultaneous analysis of metabolites of the substrate drugs to thereby evaluate the inhibitory effects on drug metabolism.
(§2) Metabolites of each CYP coenzyme indicator drug generated through the reaction were analyzed using the Shimadzu Nexera XR system and TSQ Vantage (Thermo). In an HPLC column, Kinetex C18 (2.1 mm×100 mm, 2.6 μm, particle size; Phenomenex, USA) was used, and mobile phases were (A) distilled water containing 0.1% formic acid and (B) acetonitrile containing 0.1% formic acid, and a gradient program shown in Table 3 was applied thereto.
(§3) The generated metabolites were quantified using a multiple reaction monitoring (MRM) quantification mode, and Xcalibur (version 1.6.1) was used for data analysis. In order to express inhibitory effects of the novel compound prepared according to the examples of the present invention on CYP coenzyme activity, CYP coenzyme activities (%) with respect to the control group not treated with the compound are shown in Table 4 below.

Data set [2] has as its target T2, CYP3A4 (Homo sapiens, UniProt P08684).
T2 construct: human liver microsomes (0.25 mg/mL); from tissue; host or cells: human liver microsomes
The settings on record: 10 μM compound, human liver microsomes 0.25 mg/mL, substrate midazolam, 15 minutes. As to the method:
as §1, §2, §3

The target in data set [3] is T3, CYP2C19 (Homo sapiens, UniProt P33261).
T3 construct: human liver microsomes (0.25 mg/mL); from tissue; host or cells: human liver microsomes
The settings on record: 10 μM compound, human liver microsomes 0.25 mg/mL, substrate S-mephenytoin, 15 minutes. As to the method: as §1, §2, §3

For data set [4], the target named is T4, CYP2D6 (Homo sapiens, UniProt P10635).
T4 construct: human liver microsomes (0.25 mg/mL); from tissue; host or cells: human liver microsomes
Particulars: 10 μM compound, human liver microsomes 0.25 mg/mL, substrate dextromethorphan, 15 minutes. As to the method: as §1, §2, §3

Data set [5] has as its target T5, CYP1A2 (Homo sapiens, UniProt P05177).
T5 construct: human liver microsomes (0.25 mg/mL); from tissue; host or cells: human liver microsomes
T5 sequence (P05177 1-516): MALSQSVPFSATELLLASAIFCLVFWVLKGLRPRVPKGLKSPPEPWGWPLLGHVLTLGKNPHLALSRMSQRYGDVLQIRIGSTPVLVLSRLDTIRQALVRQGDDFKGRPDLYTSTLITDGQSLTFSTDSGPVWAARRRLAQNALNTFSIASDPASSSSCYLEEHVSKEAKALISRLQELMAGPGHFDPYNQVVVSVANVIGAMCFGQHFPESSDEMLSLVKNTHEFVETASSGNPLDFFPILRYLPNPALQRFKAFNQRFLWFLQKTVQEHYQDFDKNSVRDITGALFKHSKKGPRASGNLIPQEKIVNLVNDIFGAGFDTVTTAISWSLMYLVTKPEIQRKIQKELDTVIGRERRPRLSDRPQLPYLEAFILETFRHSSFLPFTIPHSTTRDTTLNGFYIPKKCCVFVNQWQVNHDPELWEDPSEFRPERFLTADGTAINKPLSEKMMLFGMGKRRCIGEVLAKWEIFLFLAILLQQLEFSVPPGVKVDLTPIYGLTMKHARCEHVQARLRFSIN
Particulars: 10 μM compound, human liver microsomes 0.25 mg/mL, substrate phenacetin, 15 minutes. As to the method: as §1, §2, §3

T2 sequence (P08684 whole entry): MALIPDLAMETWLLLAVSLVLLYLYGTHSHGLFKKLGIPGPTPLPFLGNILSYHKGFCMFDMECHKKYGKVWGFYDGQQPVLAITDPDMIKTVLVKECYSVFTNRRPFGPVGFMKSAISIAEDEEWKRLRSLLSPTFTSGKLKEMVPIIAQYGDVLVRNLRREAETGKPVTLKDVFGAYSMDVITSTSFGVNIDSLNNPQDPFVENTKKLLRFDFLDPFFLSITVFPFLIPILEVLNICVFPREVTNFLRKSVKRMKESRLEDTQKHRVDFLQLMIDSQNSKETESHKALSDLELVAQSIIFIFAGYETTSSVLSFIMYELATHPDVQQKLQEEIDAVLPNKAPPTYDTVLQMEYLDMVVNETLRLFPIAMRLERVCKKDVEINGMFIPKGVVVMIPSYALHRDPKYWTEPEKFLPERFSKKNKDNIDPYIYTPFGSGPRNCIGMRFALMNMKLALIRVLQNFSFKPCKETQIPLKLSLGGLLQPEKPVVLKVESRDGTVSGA
T1 sequence (P11712 whole entry): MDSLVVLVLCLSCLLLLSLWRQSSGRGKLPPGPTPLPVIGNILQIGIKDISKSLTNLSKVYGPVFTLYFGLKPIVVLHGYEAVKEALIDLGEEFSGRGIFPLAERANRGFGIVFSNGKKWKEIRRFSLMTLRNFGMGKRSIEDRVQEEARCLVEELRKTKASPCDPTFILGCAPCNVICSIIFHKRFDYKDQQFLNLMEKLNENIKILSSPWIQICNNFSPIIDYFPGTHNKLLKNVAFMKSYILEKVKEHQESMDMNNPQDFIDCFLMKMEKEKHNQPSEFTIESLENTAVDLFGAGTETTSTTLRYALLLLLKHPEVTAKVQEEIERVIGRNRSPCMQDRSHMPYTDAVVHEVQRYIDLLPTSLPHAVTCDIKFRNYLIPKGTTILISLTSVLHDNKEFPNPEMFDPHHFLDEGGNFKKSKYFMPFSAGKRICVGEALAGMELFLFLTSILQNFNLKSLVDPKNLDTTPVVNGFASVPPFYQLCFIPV
T4 sequence (P10635 whole entry): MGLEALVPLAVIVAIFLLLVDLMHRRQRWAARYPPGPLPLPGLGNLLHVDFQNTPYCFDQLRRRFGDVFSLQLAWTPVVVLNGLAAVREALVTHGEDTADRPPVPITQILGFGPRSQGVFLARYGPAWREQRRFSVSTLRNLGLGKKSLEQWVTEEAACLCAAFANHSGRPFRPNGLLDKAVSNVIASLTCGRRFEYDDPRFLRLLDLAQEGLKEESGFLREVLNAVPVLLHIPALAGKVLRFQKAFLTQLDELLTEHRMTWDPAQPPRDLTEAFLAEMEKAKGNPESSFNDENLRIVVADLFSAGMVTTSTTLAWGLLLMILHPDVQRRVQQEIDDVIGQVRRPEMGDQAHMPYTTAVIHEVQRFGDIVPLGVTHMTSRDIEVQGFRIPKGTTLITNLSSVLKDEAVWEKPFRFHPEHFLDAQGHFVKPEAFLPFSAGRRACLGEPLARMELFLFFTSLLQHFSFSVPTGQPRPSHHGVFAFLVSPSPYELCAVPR
T3 sequence (P33261 whole entry): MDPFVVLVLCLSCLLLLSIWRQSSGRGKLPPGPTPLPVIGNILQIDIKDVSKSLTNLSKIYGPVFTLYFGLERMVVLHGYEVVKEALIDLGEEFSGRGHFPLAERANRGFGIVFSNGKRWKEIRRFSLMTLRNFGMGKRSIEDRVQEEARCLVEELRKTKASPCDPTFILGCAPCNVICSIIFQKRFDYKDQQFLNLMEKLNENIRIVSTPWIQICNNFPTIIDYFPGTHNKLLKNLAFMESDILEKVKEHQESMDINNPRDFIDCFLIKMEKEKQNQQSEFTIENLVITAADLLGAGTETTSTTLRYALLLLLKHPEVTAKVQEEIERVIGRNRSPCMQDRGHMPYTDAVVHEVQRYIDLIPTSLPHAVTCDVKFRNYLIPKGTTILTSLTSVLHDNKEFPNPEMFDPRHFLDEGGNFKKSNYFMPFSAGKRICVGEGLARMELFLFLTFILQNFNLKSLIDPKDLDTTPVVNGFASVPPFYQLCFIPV

`Cn1c(=O)[nH]c2cc(NN=C(C#N)C#N)ccc21` [Compound 17, (1-methyl-2-oxo-2,3-dihydro-1H-benzo[d]imidazol-5-yl)carbonohydrazonoyl dicyanide]: the “CYP2C9 coenzyme activity (%) with respect to control group not treated” value in data set [1] was found to be 81.2%. Moreover, in data set [2], the “CYP3A4 coenzyme activity (%) with respect to control group not treated” value is 89%. In data set [3], the “CYP2C19 coenzyme activity (%) with respect to control group not treated” value worked out at 80.4%. Moreover, the “CYP2D6 coenzyme activity (%) with respect to control group not treated” value in data set [4] is 87.1%. Moreover, the “CYP1A2 coenzyme activity (%) with respect to control group not treated” value in data set [5] turned out to be 32.1%.
The matching figures for `CC(C)n1c(=O)sc2cc(NN=C(C#N)C#N)ccc21` [Compound 18, (3-isopropyl-2-oxo-2,3-dihydrobenzo[d]thiazol-6-yl)carbonohydrazonoyl dicyanide]: 7.5%, 78.3%, 63.2%, 88.1% and 81.4%.
On the same counts, the results for `N#CC(C#N)=NNc1ccc2c(c1)sc(=O)n2C(F)F` [Compound 19, (3-(difluoromethyl)-2-oxo-2,3-dihydrobenzo[d]thiazol-6-yl)carbonohydrazonoyl dicyanide] are 23.3%, 81.8%, 75.7%, 40.5% and 52.5%.
On the same counts, the results for `CC(C)n1c(=O)oc2cc(NN=C(C#N)C#N)ccc21` [Compound 20, (3-isopropyl-2-oxo-2,3-dihydrobenzo[d]oxazol-6-yl)carbonohydrazonoyl dicyanide] are 32.3%, 98.8%, 85.7%, 98.1% and 87.3%.
As to `N#CC(C#N)=NNc1ccc2c(c1)oc(=O)n2C(F)F` [Compound 21, (3-(difluoromethyl)-2-oxo-2,3-dihydrobenzo[d]oxazol-6-yl)carbonohydrazonoyl dicyanide], the “CYP2C9 coenzyme activity (%) with respect to control group not treated” value in data set [1] was found to be 64.4%. In data set [2], the “CYP3A4 coenzyme activity (%) with respect to control group not treated” value is recorded as 90.4%. The “CYP2C19 coenzyme activity (%) with respect to control group not treated” value in data set [3] is recorded as 83.7%. Further, in data set [4], the “CYP2D6 coenzyme activity (%) with respect to control group not treated” value was 89.1%. Further, in data set [5], the “CYP1A2 coenzyme activity (%) with respect to control group not treated” value was 79.6%.
On the same counts, the results for `Cn1c(=O)n(C)c2cc(NN=C(C#N)C#N)ccc21` [Compound 22, (1,3-dimethyl-2-oxo-2,3-dihydro-1H-benzo[d]imidazol-5-yl)carbonohydrazonoyl dicyanide] are 99%, more than 100%, more than 100%, more than 100% and 93.5%.
The matching figures for `CC(C)n1c(=O)n(C(C)C)c2cc(NN=C(C#N)C#N)ccc21` [Compound 23, (1,3-diisopropyl-2-oxo-2,3-dihydro-1H-benzo[d]imidazol-5-yl)carbonohydrazonoyl dicyanide]: 46.4%, 79.6%, 69.7%, 95.3% and 83.2%.

(Values after patent US12590066B2, “Fused-heterocyclyl-carbonohydrazonoyl dicyanide compounds and use thereof” (KOREA INSTITUTE OF SCIENCE AND TECHNOLOGY, priority 2020, dated 2026).)
